The source made the active and inactive calls. No cut-off for these calls is given here.
Experiments:
Rattus norvegicus [1] = test: Toxicity in Zucker rat sub-chronic fa/fa prediabetic model assessed as change in body weight at 10 mg/kg, po qd for 29 days measured on day 1 to 29 during compound dosing (reference value: 140 +/- 7 g); type: organism-based; conditions: in vivo, 696 h
[2] = biological target: Peroxisome proliferator-activated receptor alpha (Homo sapiens, UniProt Q07869); test: Antagonist activity at recombinant GST-tagged human PPARalpha LBD assessed as inhibition of GW7647-induced fluorescein-labeled coactivator peptide recruitment preincubated with enzyme followed by coactivator addition by LanthaScreen TR-FRET assay
Chain of Peroxisome proliferator-activated receptor alpha (Q07869 whole entry, the tested form may be a part): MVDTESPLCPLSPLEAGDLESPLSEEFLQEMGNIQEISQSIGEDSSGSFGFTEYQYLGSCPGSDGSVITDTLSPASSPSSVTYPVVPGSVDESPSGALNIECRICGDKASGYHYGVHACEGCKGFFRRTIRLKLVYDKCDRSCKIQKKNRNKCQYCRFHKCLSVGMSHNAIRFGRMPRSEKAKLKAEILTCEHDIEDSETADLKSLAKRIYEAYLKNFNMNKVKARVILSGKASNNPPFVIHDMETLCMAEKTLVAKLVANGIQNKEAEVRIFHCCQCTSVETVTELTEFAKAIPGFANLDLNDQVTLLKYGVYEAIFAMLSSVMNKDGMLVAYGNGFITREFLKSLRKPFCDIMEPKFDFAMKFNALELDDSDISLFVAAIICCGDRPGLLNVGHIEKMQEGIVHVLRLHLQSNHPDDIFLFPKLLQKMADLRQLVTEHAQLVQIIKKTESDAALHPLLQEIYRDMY

Rattus norvegicus [3] = test: Toxicity in […] model assessed as serum BUN level at 3 mg/kg, po qd for 31 days measured on day 32 (reference value: 28.3 +/- […]); type: organism-based; conditions: in vivo, 744 h
Rattus norvegicus [4] = test: Effect on ABCG1 gene expression in epididymal white adipose tissue of Zucker rat sub-chronic fa/fa prediabetic model at 10 mg/kg, po qd for 15 days by microarray analysis relative to control; type: functional
Rattus norvegicus [5] = test: Increase in ACADM mRNA expression in epididymal white adipose tissue of Zucker rat sub-chronic fa/fa prediabetic model at 10 mg/kg, po qd for 15 days by RT-PCR method; type: functional, organism-based
[6] = Tmax in CD-1 mouse at 20 mg/kg administered via oral gavage by LC-MS analysis; type: ADME, organism-based; conditions: in vivo
Rattus norvegicus [7] = type: functional, Zucker
Rattus norvegicus [8] = test: Effect on HLA-DMB gene expression in epididymal white adipose tissue of Zucker rat sub-chronic fa/fa prediabetic model at 10 mg/kg, po qd for 15 days by microarray analysis relative to control; type: functional
Rattus norvegicus [9] = test: Increase in ERRalpha mRNA expression in epididymal white adipose tissue of Zucker rat sub-chronic fa/fa prediabetic model at 10 mg/kg, po qd for 15 days by RT-PCR method; type: functional, organism-based
Rattus norvegicus [10] = test: Antidiabetic activity in po dosed Zucker rat chronic ob/ob model assessed as reduction in HbA1c level administered once daily for 31 days measured on day 28 post dose by OGTT; type: functional, organism-based
Rattus norvegicus [11] = test: Effect on MSMO1 gene expression in epididymal white adipose tissue of Zucker rat sub-chronic fa/fa prediabetic model at 10 mg/kg, po qd for 15 days by microarray analysis relative to control; type: functional
Rattus norvegicus [12] = test: Increase in ANGPTL4 mRNA expression in epididymal white adipose tissue of Zucker rat sub-chronic fa/fa prediabetic model at 10 mg/kg, po qd for 15 days by RT-PCR method; type: functional, organism-based
Rattus norvegicus [13] = test: Toxicity in […] model assessed as serum AST level at 50 mg/kg, po qd for 31 days measured on day 32 (reference value: 180 +/- 26 U/L); type: organism-based; conditions: in vivo, 744 h
Rattus norvegicus [14] = test: Increase in ADIPOQ mRNA expression in epididymal white adipose tissue of Zucker rat sub-chronic fa/fa prediabetic model at 10 mg/kg, po qd for 15 days by RT-PCR method; type: functional, organism-based
Rattus norvegicus [15] = test: Effect on NDUFV2 gene expression in epididymal white adipose tissue of Zucker rat sub-chronic fa/fa prediabetic model at 10 mg/kg, po qd for 15 days by microarray analysis relative to control; type: functional
Rattus norvegicus [16] = test: Effect on PRKD3 gene expression in epididymal white adipose tissue of Zucker rat sub-chronic fa/fa prediabetic model at 10 mg/kg, po qd for 15 days by microarray analysis relative to control; type: functional
Rattus norvegicus [17] = test: Effect on ECI2 gene expression in epididymal white adipose tissue of Zucker rat sub-chronic fa/fa prediabetic model at 10 mg/kg, po qd for 15 days by microarray analysis relative to control; type: functional
[18] = Cmax in […] chronic ob/ob model at 10 mg/kg, po qd measured on day 1 post dose; type: ADME, organism-based; design: dose 10 mg/kg, route oral; conditions: in vivo
Rattus norvegicus [19] = test: Effect on PTGS2 gene expression in epididymal white adipose tissue of Zucker rat sub-chronic fa/fa prediabetic model at 10 mg/kg, po qd for 15 days by microarray analysis relative to control; type: functional
Rattus norvegicus [20] = test: Effect on NFKBIB gene expression in epididymal white adipose tissue of Zucker rat sub-chronic fa/fa prediabetic model at 10 mg/kg, po qd for 15 days by microarray analysis relative to control; type: functional
[21] = biological target: Steroid hormone receptor ERR2 (Homo sapiens, UniProt O95718); test: Antagonist activity at recombinant GST-tagged human ERRbeta LBD assessed as inhibition of fluorescein-labeled coactivator peptide recruitment preincubated with enzyme followed by coactivator addition by LanthaScreen TR-FRET assay
Chain of Steroid hormone receptor ERR2 (O95718 whole entry, the tested form may be a part): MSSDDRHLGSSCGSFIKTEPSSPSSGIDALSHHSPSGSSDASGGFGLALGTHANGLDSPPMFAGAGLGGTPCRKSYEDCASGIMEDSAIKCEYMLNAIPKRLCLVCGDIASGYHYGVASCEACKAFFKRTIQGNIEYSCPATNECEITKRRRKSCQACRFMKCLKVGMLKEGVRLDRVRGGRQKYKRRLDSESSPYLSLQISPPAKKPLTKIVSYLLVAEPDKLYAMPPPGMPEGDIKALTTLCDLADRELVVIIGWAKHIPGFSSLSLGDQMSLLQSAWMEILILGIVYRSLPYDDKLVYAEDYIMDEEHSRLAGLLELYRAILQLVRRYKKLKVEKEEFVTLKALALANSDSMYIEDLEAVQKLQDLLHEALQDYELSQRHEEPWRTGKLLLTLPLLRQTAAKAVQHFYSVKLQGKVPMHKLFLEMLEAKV

Rattus norvegicus [22] = test: Antidiabetic activity in Zucker rat sub-chronic fa/fa prediabetic model assessed as fasting blood insulin level at 50 mg/kg, po qd for 31 days measured on day 29 post dose (reference value: 8.5 +/- 1.4 ug/L); type: functional
Rattus norvegicus [23] = test: Effect on IMPA2 gene expression in epididymal white adipose tissue of Zucker rat sub-chronic fa/fa prediabetic model at 10 mg/kg, po qd for 15 days by microarray analysis relative to control; type: functional
Rattus norvegicus [24] = test: Toxicity in Zucker rat sub-chronic fa/fa prediabetic model assessed as food intake at 10 mg/kg, po qd for 29 days measured on day 1 to 29 during compound dosing (reference value: 969 +/- 18 g); type: organism-based; conditions: in vivo, 696 h
Rattus norvegicus [25] = test: Toxicity in Zucker rat sub-chronic fa/fa prediabetic model assessed as serum creatinine level at 50 mg/kg, po qd for 31 days measured on day 32 (reference value: 0.71 +/- 0.07 mg/dl); type: organism-based; conditions: in vivo, 744 h
[26] = Terminal half life in ob/ob mouse at 18 mg/kg administered via oral gavage by LC-MS analysis; type: ADME, organism-based; conditions: in vivo, read-out: beta t1/2 (converted)
Rattus norvegicus [27] = test: Toxicity in […] model assessed as serum BUN level at 50 mg/kg, po qd for 31 days measured on day 32 (reference value: 28.3 +/- […]); type: organism-based; conditions: in vivo, 744 h
Rattus norvegicus [28] = test: Effect on MLYCD gene expression in epididymal white adipose tissue of Zucker rat sub-chronic fa/fa prediabetic model at 10 mg/kg, po qd for 15 days by microarray analysis relative to control; type: functional
Rattus norvegicus [29] = test: Toxicity in […] chronic ob/ob model assessed as food intake at 10 mg/kg, po qd for 28 days measured on day 1 to 28 during compound dosing (reference value: 170.6 +/- 3 g); type: organism-based; conditions: in vivo, 672 h
Rattus norvegicus [30] = test: Toxicity in […] model assessed as serum BUN level at 10 mg/kg, po qd for 31 days measured on day 32 (reference value: 28.3 +/- […]); type: organism-based; conditions: in vivo, 744 h
Rattus norvegicus [31] = test: Effect on ACOX1 gene expression in epididymal white adipose tissue of Zucker rat sub-chronic fa/fa prediabetic model at 10 mg/kg, po qd for 15 days by microarray analysis relative to control; type: functional
[32] = biological target: Retinoic acid receptor RXR-alpha (Homo sapiens, UniProt P19793); test: Antagonist activity at recombinant GST-tagged human RXRalpha LBD assessed as inhibition of 9-cis-retinoic acid-induced fluorescein-labeled coactivator peptide recruitment preincubated with enzyme followed by coactivator addition by LanthaScreen TR-FRET assay
Chain of Retinoic acid receptor RXR-alpha (P19793 whole entry, the tested form may be a part): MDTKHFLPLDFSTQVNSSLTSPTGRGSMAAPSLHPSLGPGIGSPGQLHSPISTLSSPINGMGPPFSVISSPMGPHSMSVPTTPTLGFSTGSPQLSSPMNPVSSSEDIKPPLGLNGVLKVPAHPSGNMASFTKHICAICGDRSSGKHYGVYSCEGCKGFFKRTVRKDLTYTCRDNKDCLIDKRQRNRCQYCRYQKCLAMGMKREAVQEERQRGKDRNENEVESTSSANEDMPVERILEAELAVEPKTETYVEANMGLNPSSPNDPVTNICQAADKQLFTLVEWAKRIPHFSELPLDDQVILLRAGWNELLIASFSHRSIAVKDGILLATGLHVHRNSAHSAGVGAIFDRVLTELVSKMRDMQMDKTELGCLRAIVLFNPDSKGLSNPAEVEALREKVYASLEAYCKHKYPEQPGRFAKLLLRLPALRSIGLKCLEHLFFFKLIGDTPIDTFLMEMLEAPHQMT

In the case of `CN1CC[C@@H](N2C(=O)S/C(=C\c3ccc4c(cnn4Cc4ccc(Cl)cc4C(F)(F)F)c3)C2=O)[C@H](F)C1`, the Activity (Rattus norvegicus [1]) is reported as 150 g, the IC50 [2] is reported as > 10 µM and the Activity (Rattus norvegicus [3]) is reported as 25.5 mg/dL. For the same molecule, the “fold change (FC)” value (Rattus norvegicus [4]) was 1.488, the Activity (Rattus norvegicus [5]) was “Active” and the Tmax [6] was 1.5 h. For the same molecule, the Activity (Rattus norvegicus [7]) was 56958 mg·min/dL, the “fold change (FC)” value (Rattus norvegicus [8]) was -1.288 and the Activity (Rattus norvegicus [9]) was “Active”. For the same molecule, the Activity (Rattus norvegicus [10]) was “Dose-dependent effect”, the “fold change (FC)” value (Rattus norvegicus [11]) was -1.271 and the Activity (Rattus norvegicus [12]) was “Active”. For the same molecule, the Activity (Rattus norvegicus [13]) was 199 U/L, the Activity (Rattus norvegicus [14]) was “Active” and the “fold change (FC)” value (Rattus norvegicus [15]) was 1.44. For the same molecule, the “fold change (FC)” value (Rattus norvegicus [16]) was -1.247, the “fold change (FC)” value (Rattus norvegicus [17]) was 1.453 and the Cmax [18] was 520 ng/mL. The “fold change (FC)” value (Rattus norvegicus [19]) was -1.389, the “fold change (FC)” value (Rattus norvegicus [20]) was 1.31 and the IC50 [21] was > 10 µM. For the same molecule, the Activity (Rattus norvegicus [22]) was 0.7 µg/L, the “fold change (FC)” value (Rattus norvegicus [23]) was 1.526 and the Activity (Rattus norvegicus [24]) was 1060 g. The Activity (Rattus norvegicus [25]) was 0.54 mg/dL, the half-life [26] was 8.1 h and the Activity (Rattus norvegicus [27]) was 29.5 mg/dL. For the same molecule, the “fold change (FC)” value (Rattus norvegicus [28]) was 1.608, the Activity (Rattus norvegicus [29]) was 167.8 g and the Activity (Rattus norvegicus [30]) was 28.7 mg/dL. The “fold change (FC)” value (Rattus norvegicus [31]) was 1.495 and the IC50 [32] was > 10 µM.
